{"source": "ChEMBL document CHEMBL4725322", "about": "“New 30-norlupane derivatives through chemical-microbial semi-synthesis of betulinic acid and their neuroprotective effect” (Bioorg Med Chem Lett, 2020)", "key": {"[1]": {"tested_on": "PC-12", "experiment": "Neuroprotective activity against CoCl2-induced neuronal injury in rat PC-12 cells assessed as cell viability at 30 uM relative to control", "format": "functional", "settings": "read-out: Activity; call rule not given here"}, "[2]": {"tested_on": "PC-12", "experiment": "Neuroprotective activity against CoCl2-induced neuronal injury in rat PC-12 cells assessed as increase in cell viability", "format": "functional, cell-based"}, "[3]": {"settings": "Rattus norvegicus, PC-12, read-out: EC50"}}, "data": [{"smiles": "CC(=O)[C@@H]1CC[C@]2(C(=O)O)CC[C@]3(C)[C@H](CC[C@@H]4[C@@]5(C)CC[C@H](O)[C@@](C)(CO)[C@@H]5C[C@H](O)[C@]43C)[C@@H]12", "values": [{"measurement": "viability at 30 µM", "setting": "[1]", "value": 110, "unit": "%"}, {"measurement": "EC50", "setting": "[2]; pc-12", "value": "Not Active"}]}, {"smiles": "CC(=O)[C@@H]1CC[C@]2(C(=O)O)CC[C@]3(C)[C@H](C[C@@H](O)[C@@H]4[C@@]5(C)CCC(=O)C(C)(C)[C@@H]5C[C@H](O)[C@]43C)[C@@H]12", "values": [{"measurement": "viability at 30 µM", "setting": "[1]", "value": 105, "unit": "%"}, {"measurement": "EC50", "setting": "[2]; pc-12", "value": "Not Active"}]}, {"smiles": "CC(=O)[C@@H]1CC[C@]2(C(=O)O)CC[C@]3(C)[C@H](CC[C@@H]4[C@@]5(C)CC[C@H](O)C(C)(C)[C@@H]5CC[C@]43C)[C@@H]12", "note": "[PLATANIC ACID]", "values": [{"measurement": "viability at 30 µM", "setting": "[1]", "value": 96.8, "unit": "%"}, {"measurement": "EC50", "setting": "[2]; [3]", "value": 170, "unit": "nM"}]}, {"smiles": "CC(=O)[C@@H]1CC[C@]2(C(=O)O)CC[C@]3(C)[C@H](CC[C@@H]4[C@@]5(C)CCC(=O)C(C)(C)[C@@H]5C[C@H](O)[C@]43C)[C@@H]12", "values": [{"measurement": "viability at 30 µM", "setting": "[1]", "value": 96, "unit": "%"}, {"measurement": "EC50", "setting": "[2]; pc-12", "value": "Not Active"}]}, {"smiles": "CC(=O)[C@@H]1CC[C@]2(C(=O)O)CC[C@]3(C)[C@H](CC[C@@H]4[C@@]5(C)CC[C@H](O)C(C)(C)[C@@H]5C[C@H](O)[C@]43C)[C@@H]12", "values": [{"measurement": "viability at 30 µM", "setting": "[1]", "value": 105, "unit": "%"}, {"measurement": "EC50", "setting": "[2]; pc-12", "value": "Not Active"}]}, {"smiles": "OC[C@H]1O[C@@H](OCCc2ccc(O)cc2)[C@H](O)[C@@H](O)[C@@H]1O", "note": "[SALIDROSIDE]", "values": [{"measurement": "viability at 30 µM", "setting": "[1]", "value": 99.2, "unit": "%"}]}, {"smiles": "CC(=O)[C@@H]1CC[C@]2(C(=O)O)C[C@H](O)[C@]3(C)[C@H](CC[C@@H]4[C@@]5(C)CCC(=O)C(C)(C)[C@@H]5C[C@H](O)[C@]43C)[C@@H]12", "values": [{"measurement": "viability at 30 µM", "setting": "[1]", "value": 104, "unit": "%"}, {"measurement": "EC50", "setting": "[2]; pc-12", "value": "Not Active"}]}, {"smiles": "CC(=O)[C@@H]1CC[C@]2(C(=O)O)C[C@H](O)[C@]3(C)[C@H](CC[C@@H]4[C@@]5(C)CC[C@H](O)C(C)(C)[C@@H]5C[C@H](O)[C@]43C)[C@@H]12", "values": [{"measurement": "viability at 30 µM", "setting": "[1]", "value": 99.4, "unit": "%"}, {"measurement": "EC50", "setting": "[2]; pc-12", "value": "Not Active"}]}, {"smiles": "CC(=O)[C@@H]1CC[C@]2(C(=O)O)CC[C@]3(C)[C@H](C[C@@H](O)[C@@H]4[C@@]5(C)CCC(=O)C(C)(C)[C@@H]5CC[C@]43C)[C@@H]12", "values": [{"measurement": "viability at 30 µM", "setting": "[1]", "value": 102, "unit": "%"}, {"measurement": "EC50", "setting": "[2]; [3]", "value": 10, "unit": "nM"}]}]}
